The target in assay [1] is T1, Serotonin reuptake (whole rat brain synaptosomes) (Rattus norvegicus, UniProt P31652).
T1 construct: from tissue; host or cells: whole rat brain synaptosomes
The assay can be described thus: Inhibition of 3H-5-HT uptake into rat brain synaptosomes. It is filed as biochemical. How it is done:
Inhibition of ^3H-5-HT Uptake Into Rat Brain Synaptosomes
Using this method the ability of drugs to inhibit the accumulation of ^3H-5-HT into whole rat brain synaptosomes is determined in vitro.

The target of assay [2] is T2, cloned human 5-HT1A receptors (Homo sapiens, UniProt P08908).
T2 construct: expressed in transfected cells; host or cells: HeLa cells (HA7)
T2 sequence (P08908 1-422): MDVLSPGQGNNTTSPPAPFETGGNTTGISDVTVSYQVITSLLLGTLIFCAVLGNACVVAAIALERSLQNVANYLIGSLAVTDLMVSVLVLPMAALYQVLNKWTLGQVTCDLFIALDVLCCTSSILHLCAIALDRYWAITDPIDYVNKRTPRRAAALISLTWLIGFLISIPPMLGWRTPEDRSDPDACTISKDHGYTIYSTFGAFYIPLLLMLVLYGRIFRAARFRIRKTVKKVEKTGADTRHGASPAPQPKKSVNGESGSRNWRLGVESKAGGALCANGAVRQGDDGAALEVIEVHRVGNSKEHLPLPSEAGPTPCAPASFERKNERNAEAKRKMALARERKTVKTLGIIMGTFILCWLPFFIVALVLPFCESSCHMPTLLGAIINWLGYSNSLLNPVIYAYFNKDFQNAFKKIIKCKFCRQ
The assay can be described thus: Inhibition of 3H-5-CT binding to human 5-HT1A receptors. The conditions noted are these: cloned human 5-HT1A receptors in transfected HeLa cells (HA7), 15 minutes at 37° C., pH 7.7. On the procedure: The affinity of the compounds of the invention to 5-HT1A receptors was determined by measuring the inhibition of binding of a radioactive ligand at 5-HT1A receptors as described in the following test:
Inhibition of ^3H-5-CT Binding to Human 5HT1A Receptors
By this method the inhibition by drugs of the binding of the 5-HT1A agonist ^3H-5-carboxamido tryptamine (^3H-5-CT) to cloned human 5-HT1A receptors stably expressed in transfected HeLa cells (HA7) (Fargin, A. et al, J. Biol. Chem., 1989, 264, 14848) is determined in vitro. The assay was performed as a modification of the method described by Harrington, M. A. et al, J. Pharmacol. Exp. Ther., 1994, 268, 1098. Human 5-HT1A receptors (40 μg of cell homogenate) were incubated for 15 minutes at 37° C. in 50 mM Tris buffer at pH 7.7 in the presence of ^3H-5-CT. Non-specific binding was determined by including 10 μM of metergoline. The reaction was terminated by rapid filtration through Unifilter GF/B filters on a Tomtec Cell Harvester. Filters were counted in a Packard Top Counter.

Where [3] appears, read: 3H-5-HT accumulation into whole rat brain synaptosomes, in vitro, read-out: Inhibition of Serotonin reuptake IC50.

Like-named read-outs stand apart in the source and are kept apart here.

T1 sequence (P31652 whole entry): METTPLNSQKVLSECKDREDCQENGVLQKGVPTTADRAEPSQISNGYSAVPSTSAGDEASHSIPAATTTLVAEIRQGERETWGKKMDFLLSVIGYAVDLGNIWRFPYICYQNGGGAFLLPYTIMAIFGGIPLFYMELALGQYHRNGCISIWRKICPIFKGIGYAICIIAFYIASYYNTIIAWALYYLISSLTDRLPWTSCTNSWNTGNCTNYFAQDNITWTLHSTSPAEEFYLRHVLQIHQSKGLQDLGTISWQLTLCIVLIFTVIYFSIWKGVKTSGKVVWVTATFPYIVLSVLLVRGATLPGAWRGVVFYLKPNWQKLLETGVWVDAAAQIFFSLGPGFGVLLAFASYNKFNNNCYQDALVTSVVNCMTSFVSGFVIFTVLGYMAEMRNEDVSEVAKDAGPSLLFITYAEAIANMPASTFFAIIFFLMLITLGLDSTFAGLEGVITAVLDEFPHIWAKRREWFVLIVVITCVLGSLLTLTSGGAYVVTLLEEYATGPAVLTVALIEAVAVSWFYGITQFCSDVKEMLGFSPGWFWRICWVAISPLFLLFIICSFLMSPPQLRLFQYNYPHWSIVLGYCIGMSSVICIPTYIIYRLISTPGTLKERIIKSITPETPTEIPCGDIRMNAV

On to `N#Cc1c[nH]c2cccc(N3CCN(CCc4coc5ccccc45)CC3)c12` [Compound 4p, 1-(2-(3-Benzofuranyl)ethyl)-4-(3-cyano-1H-indol-4-yl)piperazine], for which the concentration for half-maximal inhibition (IC50) in assay [1] (setting [3]) turned out to be 22 nM; in assay [2] it was 4.3 nM.
In the case of `Clc1ccc2occ(CCN3CCN(c4cccc5[nH]ccc45)CC3)c2c1` [Compound 4t, 1-(2-(5-Chloro-3-benzofuranyl)ethyl)-4-(1H-indol-4-yl)piperazine], the half-inhibitory concentration (IC50) turned out to be 99 nM in assay [1] and 9.4 nM in assay [2].
For `Clc1ccc2c(CCN3CCC(c4cccc5[nH]ccc45)CC3)c[nH]c2c1` [Compound 5a] the same measures were 19 nM and 14 nM.
In the case of `Brc1ccc2[nH]cc(CCN3CCN(c4ccc5[nH]ccc5c4)CC3)c2c1` [Compound 2t, 1-(2-(5-Bromo-1H-indol-3-yl)ethyl)-4-(1H-indol-5-yl)piperazine], the IC50 in assay [1] came out at 39 nM; in assay [2], 230 nM.
For `Fc1ccc2occ(CCCN3CCN(c4cccc5[nH]ccc45)CC3)c2c1` [Compound 1h, 1-(3-(5-Fluoro-3-benzofuranyl)-1-propyl)-4-(1H-indol-4-yl)piperazine], the concentration for half-maximal inhibition (IC50) in assay [1] (setting [3]) was found to be 6.8 nM; in assay [2], 11 nM.
As to `OCc1cc(N2CCN(CCc3c[nH]c4ccc(F)cc34)CC2)c2cc[nH]c2c1` [Compound 3a, 1-(2-(5-Fluoro-1H-indol-3-yl)ethyl)-4-(6-hydroxymethyl-1H-indol-4-yl)piperazine], the half-inhibitory concentration (IC50) amounted to 17 nM in assay [1] and 910 nM in assay [2].
`Fc1ccc2occ(CCCCN3CCN(c4cccc5[nH]ccc45)CC3)c2c1` [Compound 1d, 1-(4-(5-Fluoro-3-benzofuranyl)-1-butyl)-4-(1H-indol-4-yl)piperazine]: the results for the IC50 in assay [1] (setting [3]) and in assay [2] were 31 nM and 2.5 nM, respectively.
On to `c1ccc2c(CCN3CCN(c4cccc5[nH]ccc45)CC3)c[nH]c2c1` [Compound 1e, 1-(2-(1H-indol-3-yl)ethyl)-4-(1H-indol-4-yl)piperazine], for which the IC50 in assay [1] is 4.4 nM; in assay [2], 6.9 nM.
Regarding `COC(=O)c1cc(N2CCN(CCc3coc4ccc(F)cc34)CC2)c2cc[nH]c2c1` [Compound 4h, 1-(2-(5-Fluoro-3-benzofuranyl)ethyl)-4-(6-methoxycarbonyl-1H-indol-4-yl)piperazine], the IC50 worked out at 71 nM in assay [1] (setting [3]) and 3100 nM in assay [2].
With `Clc1ccc2[nH]cc(CCN3CCN(c4ccc5[nH]ccc5c4)CC3)c2c1` [Compound 2u, 1-(2-(5-Chloro-1H-indol-3-yl)ethyl)-4-(1H-indol-5-yl)piperazine], the half-inhibitory concentration (IC50) in assay [1] was determined as 20 nM; in assay [2] it was 310 nM.
As to `Fc1ccc2c(CCCN3CCN(c4cccc5[nH]ccc45)CC3)noc2c1` [Compound 4a, 1-(3-(6-Fluoro-1,2-benzisoxazol-3-yl)-1-propyl)-4-(1H-indol-4-yl)piperazine], the half-maximal inhibitory concentration (IC50) is 360 nM in assay [1] (setting [3]) and 9.8 nM in assay [2].
On to `Cc1cccc2occ(CCN3CCN(c4cccc5[nH]ccc45)CC3)c12` [Compound 4r, 1-(1H-Indol-4-yl)-4-(2-(4-methyl-3-benzofuranyl)ethyl)piperazine], for which the IC50 in assay [1] came to 12 nM; in assay [2], 10 nM.
In the case of `c1cc(N2CCN(Cc3coc4ccccc34)CC2)c2cc[nH]c2c1` [Compound 1b, 1-(3-Benzofuranylmethyl)-4-(1H-indol-4-yl)piperazine], the figures for the half-maximal inhibitory concentration (IC50) in assay [1] (setting [3]) and in assay [2] were 290 nM and 210 nM, respectively.
Regarding `Fc1ccc2[nH]cc(CCN3CC=C(c4cccc5[nH]ccc45)CC3)c2c1` [Compound 2h, 1-(2-(5-Fluoro-1H-indol-3-yl)ethyl)-4-(1H-indol-4-yl)-1,2,3,6-tetrahydropyridine], the 50% inhibitory concentration (IC50) amounted to 2.5 nM in assay [1] and 11 nM in assay [2].
As to `Fc1ccc2occ(CCN3CCN(c4cccc5[nH]ccc45)CC3)c2c1` [Compound 1c, 1-(2-(5-Fluoro-3-benzofuranyl)ethyl)-4-(1H-indol-4-yl)piperazine], the values for the IC50 in assay [1] and in assay [2] were 57 nM and 12 nM, respectively.

By IC50 is commonly meant the concentration that gives 50% inhibition.
